Entries after “also recorded” stand apart in the source; their conditions may differ. Counter-ions that a name gives are not always drawn.
Legend:
Format in all cases: physicochemical
[1] = Solubility of 25HC3S salts after one day at room temperature (HPLC, as free acid); settings: one day; for Solubility in 5% Dextrose / Solubility in FaSSIF / Solubility in FaSSGF / Solubility in FeSSIF / Solubility in ACN / Solubility in EtOH / Solubility in IPA / Solubility in MeOH / Solubility in H2O: as free acid; for Solubility in ACN: acetonitrile; for Solubility in EtOH: ethanol; for Solubility in EtOH / Solubility in MeOH: ≥ = did not reach saturation; for Solubility in IPA: isopropyl alcohol; for Solubility in MeOH: methanol; for Solubility in H2O: water
Method: These fluids were prepared per the instruction listed by Biorelevant (Biorelevant.com). Each buffer concentrate was diluted with water and mixed well. FaSSIF, FeSSIF, FaSSGF powder was added to each buffer and mixed to completely dissolve the powder. Buffers were stored at room temperature and used within 48 hours of preparation.
25HC3S salts were weighed in 8 mL or 4 mL glass vials with Teflon coated screw caps. Aliquots of each solvent were added to each sample and vortexed for about one minute until excess solid remained. Samples were placed on shaker at room temperature with 210 motion per minute shaking.
After one day, samples were pulled and checked if excess solid was present. About 1.5 mL aliquot of each sample was centrifuged at 12000 rpm for 12 to 15 minutes. […] Aliquots of the top clear solution of each centrifuged sample in MeOH, EtOH, IPA and ACN were diluted with diluent (water:MeOH 95:5) and assayed by HPLC. Samples of the salts in aqueous media were assayed by HPLC without dilution.
All solubility sample solutions of 25HC3S salts were determined using HPLC. A linear standard curve was constructed using standards with concentration between 11 μg/mL to 1.5 mg/mL as free acid forcing the curve to origin. Solubilities are reported as mg/mL free acid 25HC3S. Detection limit (LOD) of the HPLC method was calculated as 0.0007 mg/mL.

[2] = Hausner ratio and compressibility index of 25HC3S salts; settings: for Compressibility Index: Table C3 heads this index in %
Method: Although there are some variations in the method of determining the compressibility index and Hausner ratio, the basic procedure is to measure the unsettled apparent volume, VO, and the final tapped volume, Vf, of the powder after tapping the material until no further volume changes occur. The compressibility index and the Hausner ratio are calculated as follows: […]
Both the Hausner ratio and the compressibility index are empirically established. The Hausner ratio and compressibility index are not absolute properties of a material; its value can vary depending on the methodology used to determine them. In this case, since the 14 salts of 25HC3S were measured the same way, the relative values should be accurate.
Table C3, from USP <1174> Powder Flow, describes the flow character of the powder based on the compressibility index and Hausner ratio values.
Powder was carefully poured into a 5 mL glass graduated cylinder (to contain) until it was close to or at 5.0 mL. This initial volume was recorded as Vo. The graduated cylinder was tapped on a hard surface for 200 times and the volume was recorded. The cylinder was tapped 100 times more, and the final volume Vf was recorded. Typically, the volume after 200 taps was identical to after 300 taps, or within 0.1 mL.

[3] = Differential scanning calorimetry (DSC), thermal decomposition / endothermic transition; settings: for Decomposition temperature (DSC): 10° C./min
Method: Differential scanning calorimetry (DSC) is a thermoanalytical technique where the difference in the amount of heat required to increase the temperature of a sample and reference is measured as a function of temperature. Using this technique, phase transitions of a sample can be measured such as melting point. Decomposition can also be observed by DSC as can dehydration events. In the context of DSC measurements, there is also variability and the term “about” means ±1° C., and such variability is to be understood whether a DSC measurement is prefaced by “about” or not unless specified otherwise. Exemplary methods for collecting DSC data are set forth in Example 21. Thermogravimetric analysis, sometimes referred to as, thermal gravimetric analysis (TGA) is a thermal method of thermal analysis where the mass of a sample is measured as a function of time as the sample temperature changes. For example, when samples disclosed herein are heated and a loss in mass is measured prior to decomposition, this is likely indicative of the loss of water from the sample and may indicate that the sample being heated is a hydrate. Exemplary methods for collecting TGA are set forth in Example 23.
DSC was performed using a Mettler-Toledo DSC3+ differential scanning calorimeter. A tau lag adjustment is performed with indium, tin, and zinc. The temperature and enthalpy are adjusted with octane, phenyl salicylate, indium, tin and zinc. The adjustment is then verified with octane, phenyl salicylate, indium, tin, and zinc. The sample was placed into a hermetically sealed aluminum DSC pan, and the weight was accurately recorded. The pan was then inserted into the DSC cell. A weighed aluminum pan configured as the sample pan was placed on the reference side of the cell. The pan lid was pierced prior to sample analysis. Samples were analyzed from 30° C. to 350° C. or 30° C. to 250° C., both at 10° C./min.

[4] = Dynamic vapor sorption (DVS), hygroscopicity
[5] = Overall rank order of powder flowability (angle of repose and Hausner ratio); settings: for Powder flowability, overall (in words): angle of repose and compressibility index/Hausner ratio combined; for Angle of Repose Rank Order / Hausner Ratio Rank Order / Overall Rank Order (Total Score): lower is better flow; for Overall Rank Order (Total Score): sum of both ranks
From the text: Table C5 was generated by adding the relative rank order of the 25HC3S salts for angle of repose and Hausner ratio results, and creating an Over All Rank Order of the salts powder flowability. The salts with the lower overall rank order score had better powder flowability.

[6] = room temperature, ND = not detected, detection limit 0.7 μg/mL, 1440 min, listed as 25HC3S zinc
[7] = room temperature, 1440 min, listed as 25HC3S zinc
[8] = room temperature, ND = not detected, detection limit 0.7 μg/mL, 1440 min, listed as 25HC3S choline
[9] = room temperature, 1440 min, listed as 25HC3S choline
[10] = room temperature, listed as crystalline 25HC3S choline
[11] = listed as 25HC3S tromethammonium

CC(CCCC(C)(C)O)C1CCC2C3CC=C4CC(OS(=O)(=O)O)CCC4(C)C3CCC12C (stereo not drawn) [Salt #3]
Solubility in 5% Dextrose [1, 6]: 13 µg/mL | Solubility in ethanol (in words) ([1]; EtOH, room temperature, listed as crystalline 25HC3S zinc): relatively high solubility | Solubility in FaSSGF (in words) ([1]; FaSSGF, room temperature, listed as crystalline 25HC3S zinc): low solubility | Solubility in FaSSIF [1, 7]: 133 µg/mL | Solubility in FaSSGF ([1]; Fasted State Simulated Gastric Fluid, pH 1.6, room temperature, LOD 0.0007 mg/mL): no solubilized drug was detected | Solubility in FeSSIF [1, 7]: 673 µg/mL | Solubility in ACN [1, 7]: 100 µg/mL | Solubility in EtOH [1, 7]: 31200 µg/mL | Solubility in IPA [1, 7]: 3500 µg/mL | Solubility in MeOH [1, 7]: 39500 µg/mL | Solubility in saline / 0.9% sodium chloride (in words) ([1]; room temperature, listed as crystalline 25HC3S zinc): low solubility | Solubility in H2O [1, 6]: 6 µg/mL | Compressibility Index ([2]; listed as 25HC3S zinc): 28 | Hausner Ratio ([2]; listed as 25HC3S zinc): 1.39 | Decomposition temperature (DSC) ([3]; listed as crystalline 25HC3S zinc): about 119 °C | Water uptake (change in mass), 25% to 45% RH ([4]; DVS, between 25% and 45% relative humidity): about 2.8% | Powder flowability, overall (in words) ([5]; listed as zinc): next group | Angle of Repose Rank Order ([5]; listed as 25HC3S zinc): 10 | Hausner Ratio Rank Order ([5]; listed as 25HC3S zinc): 5 | Overall Rank Order (Total Score) ([5]; listed as 25HC3S zinc): 15

CC(CCCC(C)(C)O)C1CCC2C3CC=C4CC(OS(=O)(=O)O)CCC4(C)C3CCC12C (stereo not drawn) [Salt #4]
Solubility in 5% Dextrose [1, 8]: 93 µg/mL | Solubility in FaSSGF ([1]; FaSSGF, room temperature, ND = not detected, detection limit 0.7 μg/mL, 1440 min, listed as 25HC3S choline): 8 µg/mL | Solubility in FaSSGF (in words) ([1]; FaSSGF, room temperature, listed as crystalline 25HC3S choline): low solubility | Solubility in FaSSIF [1, 9]: 152 µg/mL | Solubility in FaSSIF (in words) [1, 10]: relatively high solubility | Solubility in FeSSIF [1, 9]: 827 µg/mL | Solubility in FeSSIF (in words) [1, 10]: relatively high solubility | Solubility in ACN [1, 9]: 500 µg/mL | Solubility in EtOH [1, 9]: 3400 µg/mL | Solubility in IPA [1, 9]: 600 µg/mL | Solubility in MeOH [1, 9]: 17500 µg/mL | Solubility in saline / 0.9% sodium chloride (in words) [1, 10]: low solubility | Solubility in H2O [1, 8]: 107 µg/mL | Compressibility Index ([2]; listed as 25HC3S choline): 42 | Hausner Ratio ([2]; listed as 25HC3S choline): 1.72 | First significant endothermic transition (DSC) ([3]; indicative of thermal degradation or solid-state transformation, listed as choline): ~198 °C | Weight loss on return to 5% relative humidity ([4]; DVS desorption, 95% to 5% RH): 0.5% | Reversibility of water uptake (in words) ([4]; DVS, RH reduced from 95% to 5%, listed as crystalline 25HC3S choline): no hysteresis; also recorded: reversibly lose all that water | Hygroscopicity (in words) ([4]; DVS, listed as 25HC3S choline): surprisingly low hygroscopicity | Hygroscopicity (in words) ([4]; DVS, listed as crystalline 25HC3S choline): not appreciably hygroscopic; also recorded: less hygroscopic | Powder flowability, overall (in words) ([5]; listed as choline): next group | Angle of Repose Rank Order ([5]; listed as 25HC3S choline): 4 | Hausner Ratio Rank Order ([5]; listed as 25HC3S choline): 15 | Overall Rank Order (Total Score) ([5]; listed as 25HC3S choline): 19

CC(CCCC(C)(C)O)C1CCC2C3CC=C4CC(OS(=O)(=O)O)CCC4(C)C3CCC12C (stereo not drawn) [Salt #8]
Solubility in FaSSGF (in words) ([1]; FaSSGF, room temperature): high solubility | Solubility in FaSSIF (in words) ([1]; room temperature): high solubility | Solubility in FeSSIF (in words) ([1]; room temperature): high solubility | Solubility in saline / 0.9% sodium chloride (in words) ([1]; room temperature, listed as crystalline 25HC3S tromethammonium): low solubility | Compressibility Index [2, 11]: 28 | Hausner Ratio [2, 11]: 1.39 | Decomposition temperature (DSC) ([3]; listed as crystalline 25HC3S tromethammonium): about 184 °C | Water uptake (weight gain) up to about 95% relative humidity ([4]; DVS, 5% to about 95% RH, listed as crystalline 25HC3S tromethammonium): over 20% | Hygroscopicity (in words) ([4]; DVS, listed as crystalline 25HC3S tromethammonium): hygroscopic | Powder flowability, overall (in words) ([5]; listed as tromethammonium): next group | Angle of Repose Rank Order [5, 11]: 8 | Hausner Ratio Rank Order [5, 11]: 6 | Overall Rank Order (Total Score) [5, 11]: 14

— patent publication US20260317367A1, “SALTS INCLUDING CRYSTALLINE SALTS OF 25-HYDROXY-CHOLEST-5-EN-3-SULFATE AND METHODS FOR PREPARING SAME” (Durect Corporation, priority 2022, published 2026)
